Reference: patent US20100168176A1, “NOVEL COMPOUNDS, PHARMACEUTICAL COMPOSITIONS CONTAINING SAME, AND METHODS OF USE FOR SAME” (FASGEN LLC, priority 2006, published 2010)
Values after ≈ are worked out from the molar mass of the structure shown.

Assays:
[1] = test system: MCF-7 human breast cancer cells; assay: [14C]acetate incorporation into total lipids; assay type: cell-based; conditions: MCF7
Protocol: Measurement of [^14 C]acetate Incorporation into Total Lipids and Determination of IC50 of Compounds
This assay measures the incorporation of [^14C]acetate into total lipids and is a measure of fatty acid synthesis pathway activity in vitro. It is utilized to measure inhibition of fatty acid synthesis in vitro.
MCF-7 human breast cancer cells cultured as above, are plated at 5×10^4 cells per well in 24-well plates. Following overnight incubation, the compounds to be tested, solubilized in DMSO, are added at 5, 10, and 20 μg/ml in triplicate, with lower concentrations tested if necessary. DMSO is added to triplicate wells for a vehicle control. C75 is run at 5 and 10 μg/ml in triplicate as positive controls. After 4 hours of incubation, 0.25 μCi of [^14C]acetate (10 μl volume) is added to each well.
After 2 hours of additional incubation, medium is aspirated from the wells and 800 μl of chloroform:methanol (2:1) and 700 μl of 4 mM MgCl2 is added to each well. Contents of each well are transferred to 1.5 Eppendorf tubes, and spun at full-speed for 2 minutes in a high-speed Eppendorf Microcentrifuge 5415D. After removal of the aqueous (upper) layer, an additional 700 μl of chloroform:methanol (2:1) and 500 μl of 4 mM MgCl2 are added to each tube and then centrifuged for 1 minutes as above. The aqueous layer is removed with a Pasteur pipette and discarded. An additional 400 μl of chloroform:methanol (2:1) and 200 μl of 4 mM MgCl2 are added to each tube, then centrifuged and aqueous layer is discarded. The lower (organic) phase is transferred into a scintillation vial and dried at 40° C. under N2 gas. Once dried, 3 ml of scintillant (APB #NBC5104) is added and vials are counted for ^14C. The Beckman Scintillation counter calculates the average cpm values for triplicates.
The IC50 for the compounds is defined as the concentration of drug leading to a 50% reduction in [^14C]acetate incorporation into lipids compared to controls. This is determined by plotting the average cpm for each inhibitor concentration tested, performing linear regression and computing the best-fit line, r^2 values, and 95% confidence intervals. The average cpm values are computed by the Beckman scintillation counter (Model LS6500) for each compound concentration. Computation of linear regression, best-fit line, r^2, and 95% confidence intervals are calculated using Prism Version 3.0 (Graph Pad Software).

[2] = test system: MCF-7 human breast cancer cells; assay: XTT cytotoxicity assay, MCF-7 (M); assay type: cell-based; conditions: (M) or no code, MCF-7, 72 hours; for IC50: Homo sapiens, MCF7
Protocol: The XTT assay is a non-radioactive alternative for the [^51Cr] release cytotoxicity assay. XTT is a tetrazolium salt that is reduced to a formazan dye only by metabolically active, viable cells. The reduction of XTT is measured spectrophotometrically as OD490-OD650.
To measure the cytotoxicity of specific compounds against cancer cells, 9×10^3 MCF-7 human breast cancer cells, obtained from the American Type Culture Collection are plated per well in 96 well plates in DMEM medium with 10% fetal bovine serum, insulin, penicillin, and streptomycin. Following overnight culture at 37° C. and 5% CO2, the compounds to be tested, dissolved in DMSO, are added to the wells in 1 μl volume at the following concentrations: 80, 40, 20, 10, 5, 2.5, 1.25, and 0.625 μg/ml in triplicate. Additional concentrations are tested if required. 1 μl of DMSO is added to triplicate wells are the vehicle control. C75 is run at 40, 20, 10, […], 10, and 5 in triplicate as positive controls.
After 72 hours of incubation, cells are incubated for 4 hours with the XTT reagent as per manufacturer's instructions (Cell Proliferation Kit II (XTT) Roche). Plates are read at OD490 and OD650 on a Molecular Devices SpectraMax Plus Spectrophotometer. Three wells containing the XTT reagent without cells serve as the plate blank. XTT data are reported as OD490-OD650. Averages and standard error of the mean are computed using SOFTmax Pro software ([…]).
The IC50 for the compounds is defined as the concentration of drug leading to a 50% reduction in OD400-OD650 compared to controls. The OD400-OD650 are computed by the SOFTmax PRO software (Molecular Devices) for each compound concentration. IC50 is calculated by linear regression, plotting the FAS activity as percent of control versus drug concentrations. Linear regression, best-fit line, r^2, and 95% confidence intervals are determined using Prism Version 3.0 (Graph Pad Software).

OV = assay: XTT cytotoxicity assay, OV; assay type: cell-based
H = assay: Crystal violet cell growth assay, H; assay type: cell-based; conditions: read-out: Cr. Violet (IC50)
Protocol: Crystal Violet Cell Growth Assay
The crystal violet assay measure cell growth but not cytotoxicity. This assay employs crystal violet staining of fixed cells in 96-well plates with subsequent solubilization and measurement of OD490 on a spectrophotometer. The OD490 corresponds to cell growth per unit time measured. Cells are treated with the compounds of interest or vehicle controls and IC50 for each compound is computed.
To measure the cytotoxicity of specific compounds against cancer cells, 5×10^4 MCF-7 human breast cancer cells, obtained from the American Type Culture Collection are plated per well in 24 well plates in DMEM medium with 10% fetal bovine serum, penicillin, and streptomycin. Following overnight culture at 37° C. and 5% CO2, the compounds to be tested, dissolved in DMSO, are added to the wells in 1 μl volume at the following concentrations: 50, 40, 30, 20, and 10 μg/ml in triplicate. Additional concentrations are tested if required. 1 μl of DMSO is added to triplicate wells are the vehicle control. C75 is run at 10, and 5 μg/ml in triplicate as positive controls.
After 72 hours of incubation, cells are stained with 0.5 ml of Crystal Violet stain (0.5% in 25% methanol) in each well. After 10 minutes, wells are rinsed, air dried, and then solubilized with 0.5 ml 10% sodium dodecylsulfate with shaking for 2 hours. Following transfer of 100 μl from each well to a 96-well plate, plates are read at OD490 on a Molecular Devices SpectraMax Plus Spectrophotometer Average OD490 values are computed using SOFTmax Pro Software (Molecular Devices) and IC50 values are determined by linear regression analysis using Prism version 3.02 (Graph Pad Software, San Diego).

[3] = Weight loss screen in Balb/C mice; assay type: in vivo; conditions: 60 mg/kg intraperitoneally
Protocol: Weight Loss Screen for Novel FAS Inhibitors
Balb/C mice (Jackson Labs) are utilized for the initial weight loss screening. Animals are housed in temperature and 12 hour day/night cycle rooms and fed mouse chow and water ad lib. Three mice are utilized for each compound tested with vehicle controls in triplicate per experiment. For the experiments, mice are housed separately for each compound tested three mice to a cage. Compounds are diluted in DMSO at 10 mg/ml and mice are injected intraperitoneally with 60 mg/kg in approximately 100 μl of DMSO or with vehicle alone. Mice are observed and weighed daily; average weights and standard errors are computed with Excel (Microsoft). The experiment continues until treated animals reach their pretreatment weights.

FAO = FAO SC 150 / FAO Max; conditions: for FAO Max: at the concentration given under E18
[4] = molecular target: rat liver acyl-CoA synthetase; conditions: rat liver enzyme; read-out: 50% inhibition of rat liver acyl-CoA synthetase; cited from earlier work
Raji cells = conditions: cited from earlier work
viral HIV protease = viral HIV protease (Human immunodeficiency virus type 1 group M subtype B, UniProt P04585); conditions: cited from earlier work
[5] = test system: Mycobacterium tuberculosis; conditions: in vitro; cited from earlier work
purified human FAS = molecular target: T1, purified human FAS (Homo sapiens, UniProt P49327); assay: FAS enzymatic activity (malonyl-CoA dependent NADPH oxidation, OD340); assay type: biochemical; conditions: purified human FAS from ZR-75-1 cells
T1 construct: Human FAS was purified from cultured ZR-75-1 human breast cancer cells; endogenous in cells; host or cells: ZR-75-1 human breast cancer cells (ATCC); Purified by hypotonic lysis, PEG precipitations and Mono Q anion exchange
Protocol: Purification of FAS from ZR-75-1 Human Breast Cancer Cells.
Human FAS was purified from cultured ZR-75-1 human breast cancer cells obtained from the American Type Culture Collection. The procedure, adapted from Linn et al., 1981, and Kuhajda et al., 1994, utilizes hypotonic lysis, successive polyethyleneglycol (PEG) precipitations, and anion exchange chromatography. ZR-75-1 cells are cultured at 37° C. with 5% CO2 in RPMI culture medium with 10% fetal bovine serum, penicillin and streptomycin.
Ten T150 flasks of confluent cells are lysed with 1.5 ml lysis buffer (20 mM Tris-HCl, pH 7.5, 1 mM EDTA, 0.1 mM phenylmethanesulfonyl fluoride (PMSF), 0.1% Igepal CA-630) and dounce homogenized on ice for 20 strokes. The lysate is centrifuged in JA-20 rotor (Beckman) at 20,000 rpm for 30 minutes at 4° C. and the supernatant is brought to 42 ml with lysis buffer. A solution of 50% PEG 8000 in lysis buffer is added slowly to the supernatant to a final concentration of 7.5%. After rocking for 60 minutes at 4° C., the solution is centrifuged in JA-20 rotor (Beckman) at 15,000 rpm for 30 minutes at 4° C. Solid PEG 8000 is then added to the supernatant to a final concentration of 15%. After the rocking and centrifugation is repeated as above, the pellet is resuspended overnight at 4° C. in 10 ml of Buffer A (20 mM K2HPO4, pH 7.4). […] FAS protein concentration is determined using the Coomassie Plus Protein Assay Reagent (Pierce) according to manufacturer's specifications using BSA as a standard. […]
FAS activity is measured by monitoring the malonyl-CoA dependent oxidation of NADPH spectrophotometrically at OD340 in 96-well plates (Dils et al and Arslanian et al, 1975). […]
The assay is performed on a Molecular Devices SpectraMax Plus Spectrophotometer. […] Using the kinetic protocol, the wells are blanked on duplicate wells containing 100 μl of 100 mM K2HPO4, pH 6.5 and the plate is read at OD340 at 10 sec intervals for 5 minutes to measure any malonyl-CoA independent oxidation of NADPH. […] The plate is read again as above with the kinetic protocol to measure the malonyl-CoA dependent NADPH oxidation. […]

T1 sequence (P49327 whole entry): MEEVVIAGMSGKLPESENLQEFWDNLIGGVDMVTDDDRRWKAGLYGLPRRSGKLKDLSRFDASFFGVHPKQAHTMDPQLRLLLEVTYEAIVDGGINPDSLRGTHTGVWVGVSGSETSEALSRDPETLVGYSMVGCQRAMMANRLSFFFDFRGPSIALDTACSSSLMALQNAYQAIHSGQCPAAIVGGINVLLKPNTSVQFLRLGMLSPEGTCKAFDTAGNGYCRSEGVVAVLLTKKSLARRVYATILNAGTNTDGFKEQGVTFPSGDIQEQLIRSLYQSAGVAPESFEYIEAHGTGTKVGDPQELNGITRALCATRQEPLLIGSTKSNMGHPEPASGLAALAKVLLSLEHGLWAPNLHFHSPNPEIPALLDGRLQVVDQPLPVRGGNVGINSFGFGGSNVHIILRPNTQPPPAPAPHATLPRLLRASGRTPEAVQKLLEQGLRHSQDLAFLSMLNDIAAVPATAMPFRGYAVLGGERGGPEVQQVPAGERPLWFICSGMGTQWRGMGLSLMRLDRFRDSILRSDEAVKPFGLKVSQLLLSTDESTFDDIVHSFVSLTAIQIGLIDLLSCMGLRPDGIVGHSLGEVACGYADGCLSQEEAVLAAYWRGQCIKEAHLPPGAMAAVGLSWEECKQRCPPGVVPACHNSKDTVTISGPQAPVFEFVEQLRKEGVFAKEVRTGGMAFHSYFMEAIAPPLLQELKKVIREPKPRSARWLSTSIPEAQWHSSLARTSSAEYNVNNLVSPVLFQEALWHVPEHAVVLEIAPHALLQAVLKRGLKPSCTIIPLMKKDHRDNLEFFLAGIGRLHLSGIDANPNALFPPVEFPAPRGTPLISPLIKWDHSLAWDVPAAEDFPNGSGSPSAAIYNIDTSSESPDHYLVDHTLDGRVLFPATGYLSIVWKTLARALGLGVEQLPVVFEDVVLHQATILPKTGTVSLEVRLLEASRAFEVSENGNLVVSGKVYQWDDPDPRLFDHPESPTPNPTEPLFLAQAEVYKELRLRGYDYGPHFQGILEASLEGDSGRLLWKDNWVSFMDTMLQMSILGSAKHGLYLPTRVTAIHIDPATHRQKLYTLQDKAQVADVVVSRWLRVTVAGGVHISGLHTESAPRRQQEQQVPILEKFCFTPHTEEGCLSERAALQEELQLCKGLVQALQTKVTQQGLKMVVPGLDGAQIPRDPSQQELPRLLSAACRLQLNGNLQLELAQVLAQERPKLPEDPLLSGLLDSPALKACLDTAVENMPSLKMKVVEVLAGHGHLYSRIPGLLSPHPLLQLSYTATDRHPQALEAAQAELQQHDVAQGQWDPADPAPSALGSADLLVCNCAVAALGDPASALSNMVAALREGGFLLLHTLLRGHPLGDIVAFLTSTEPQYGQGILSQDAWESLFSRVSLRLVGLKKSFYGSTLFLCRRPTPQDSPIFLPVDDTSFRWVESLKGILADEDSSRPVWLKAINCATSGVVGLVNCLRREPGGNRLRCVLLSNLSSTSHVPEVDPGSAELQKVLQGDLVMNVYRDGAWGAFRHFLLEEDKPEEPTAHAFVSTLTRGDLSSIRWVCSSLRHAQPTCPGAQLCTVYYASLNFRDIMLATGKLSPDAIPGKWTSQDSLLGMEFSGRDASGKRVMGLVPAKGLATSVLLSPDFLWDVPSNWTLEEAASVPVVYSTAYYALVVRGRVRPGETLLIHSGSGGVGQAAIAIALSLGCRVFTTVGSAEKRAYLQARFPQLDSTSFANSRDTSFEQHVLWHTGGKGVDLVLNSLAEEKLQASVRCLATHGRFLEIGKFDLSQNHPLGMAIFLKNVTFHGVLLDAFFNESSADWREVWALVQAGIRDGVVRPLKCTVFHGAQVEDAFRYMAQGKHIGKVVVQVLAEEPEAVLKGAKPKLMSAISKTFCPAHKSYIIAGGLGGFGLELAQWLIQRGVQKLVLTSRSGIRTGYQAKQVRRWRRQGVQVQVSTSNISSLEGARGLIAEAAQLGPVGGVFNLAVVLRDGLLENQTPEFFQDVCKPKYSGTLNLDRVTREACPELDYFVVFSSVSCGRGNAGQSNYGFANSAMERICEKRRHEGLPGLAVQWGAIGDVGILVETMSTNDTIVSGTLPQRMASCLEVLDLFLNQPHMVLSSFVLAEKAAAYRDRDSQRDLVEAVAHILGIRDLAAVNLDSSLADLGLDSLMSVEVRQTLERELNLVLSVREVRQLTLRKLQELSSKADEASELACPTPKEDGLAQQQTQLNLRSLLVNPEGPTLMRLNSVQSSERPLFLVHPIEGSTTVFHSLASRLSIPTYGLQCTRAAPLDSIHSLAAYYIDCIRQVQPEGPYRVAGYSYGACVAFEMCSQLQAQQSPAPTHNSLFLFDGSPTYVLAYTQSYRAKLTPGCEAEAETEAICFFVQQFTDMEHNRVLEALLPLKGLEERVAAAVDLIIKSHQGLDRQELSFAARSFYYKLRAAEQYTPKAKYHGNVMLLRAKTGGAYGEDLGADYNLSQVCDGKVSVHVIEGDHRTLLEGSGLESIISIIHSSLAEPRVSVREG

Row | Compound | IC50 [1] [µg/mL] | IC50 [2] [µg/mL] | IC50 (OV) [µg/mL] | IC50 (H) [µg/mL] | FAO Max: concentration at which the maximum was seen (FAO) | FAO SC 150 (FAO) | FAO Max (FAO) | also measured
1 | CCCCCCCCC1(C)SC(=O)C=C1OCC(=O)NNc1ccc(C(F)(F)F)cc1 (centres unmarked) [Compound 12, (5-Methyl-5-octyl-2-oxo-thiophen-4-yloxy)-acetic-acid-N′-(4-trifluoromethylphenyl)-hydrazide] | 11.3 (≈ 24.6 µM) | 5.7 (≈ 12.4 µM) | 9.6 (≈ 20.9 µM) | 4.8 (≈ 10.5 µM) | 1.56 μg/ml ug/ml | Neg | 118% at | Weight Loss ([3]; day 2): 60 mg/kg: 2.7% (day 2)
2 | CCCCCCCCC1(C)SC(=O)C=C1OCC(=O)NNc1cc(C(F)(F)F)ccc1Cl (centres unmarked) [Compound 16, (5-Methyl-5-octyl-2-oxo-thiophen-4-yloxy)-acetic-acid-N′-[2-chloro-5-(trifluoromethyl)phenyl]-hydrazide] | 16.5 (≈ 33.5 µM) | 6 (≈ 12.2 µM) | 7.2 (≈ 14.6 µM) | 5.8 (≈ 11.8 µM) | 6.25 µg/mL | Neg | 137% @ | Weight Loss ([3]; day 3): 60 mg/kg: 1.7 % (day 3)
3 | CCCC=CCC=CC=CC=NN=NO [Triacsin C, 1-hydroxy-3-(E, E, E-2′,4′,7′-undecatrienylidine) triazene] |  |  |  |  |  |  |  | IC50 [4]: 8.7 µM; growth inhibition in Raji cells at (Raji cells): 1.0 µM
4 | C/C=C/C/C=C/CCC(=O)[C@H]1O[C@H]1C(N)=O [cerulenin, (2S,3R)-2,3-epoxy-4-oxo-7,10 dodecadienoyl amide] |  |  |  |  |  |  |  | inhibition of viral HIV protease at (viral HIV protease): 5 mg/mL; activity against Mycobacterium tuberculosis [5]: no activity was found
5 | (5-Methyl-5-hexyl-2-oxo-thiophen-4-yloxy)-acetic-acid-M-(4-chlorophenyl)-hydrazide [Compound 21] |  |  |  |  | 0.024 μg/ml ug/ml | Neg | 104% at | FAS (IC50) (purified human FAS): Neg; XTT (IC50) [2]: 9.8 μg/ml (M) ug/ml; XTT (IC50) (OV): 11.2 µg/mL
